Results from patent US11040959B2, “Diprovocims: a new and potent class of TLR agonists” (The Scripps Research Institute, priority 2016, dated 2021).
Like-named read-outs stand apart in the source and are kept apart here. Values belong to the compound of their own block, whether it stands above or below them.

Test system: differentiated human THP-1 cells
Assay: stimulated release of TNF-α from differentiated human THP-1 cells (ELISA, dose-response)
Format: cell-based
Settings: for EC50: Homo sapiens
Protocol: A screening campaign was conducted with nearly 100,000 compounds [(a) Whitby et al., Acc. Chem. Res. 2012, 45:1698-1709; and (b) Boger et al., Angew. Chem. Int. Ed. 2003, 42:4138-4176], using a newly developed functional assay that measured the stimulated release of TNF-α from treated human THP-1 cells partially differentiated along the macrophage line [unpublished results of the inventors and co-workers]. […] The libraries screened in the efforts represent a unique compound collection populated by nontraditional compounds [(a) Whitby et al., Acc. Chem. Res. 2012, 45:1698-1709; and (b) Boger et al., Angew. Chem. Int. Ed. 2003, 42:4138-4176] designed to target protein-protein [(a) Shaginian et al., J. Am. Chem. Soc. 2009, 131:5564-5572; and (b) Whitby et al., J. Am. Chem. Soc. 2011, 133:10184-10194] or protein-DNA interactions [Stover et al., J. Am. Chem. Soc. 2009, 131:3342-3348] as well as the major enzyme classes [Otrubova et al., Bioorg. Med. Chem. Lett. 2014, 24:3807-3813].
Hits were confirmed in an ELISA assay for stimulated TNF-α release from human PMA differentiated THP-1 cells and this assay was used for establishing dose-response curves and measured EC50 values.

[1] = THP-1, running text, read-out: EC50, stimulated release of TNF-α from differentiated human THP-1 cells

Structure (SMILES): O=C(NCCc1cccc(F)c1)[C@H]1CN(C(=O)c2ccc(C(=O)N3C[C@H](C(=O)NCCc4cccc(F)c4)[C@@H](C(=O)NCCc4cccc(F)c4)C3)cc2)C[C@@H]1C(=O)NCCc1cccc(F)c1 (racemic) [Compound 84, 1,1′-Terephthaloylbis(N^3,N^4-bis(3-fluoro-phenethyl)pyrrolidine-trans-3,4-dicarboxamide)]
EC50 (THP-1, Table 5 footnote, racemates, TNF-α release from human differentiated THP-1 cells, read-out: EC50): 1000 nM
EC50 [1]: 1000 nM
fold less active (3- vs 4-fluorophenethylamide) (human THP-1 cells, racemates): > 10 fold

Structure (SMILES): O=C(NCCc1ccccc1)[C@@H]1CN(C(=O)c2ccc(C(=O)N3C[C@@H](C(=O)NCCc4ccccc4)[C@H](C(=O)N[C@H]4C[C@@H]4c4ccccc4)C3)cc2)C[C@H]1C(=O)NCCc1ccccc1 (relative stereo) [Compound 9]
activity in stimulating TNF-α release from human THP-1 cells (in words) (tested up to 5 μM where stated): inactive

Structure (SMILES): O=C(N[C@H]1C[C@@H]1c1ccccc1)[C@H]1CCN(C(=O)c2ccc(C(=O)N3C[C@@H](C(=O)N[C@H]4C[C@@H]4c4ccccc4)[C@H](C(=O)N[C@H]4C[C@@H]4c4ccccc4)C3)cc2)C1 [Compound 29, (3S,4S)—N^3,N^4-Bis((1S,2R)-2-phenyl-cyclopropyl)-1-(4-((S)-3-(((1S,2R)-2-phenyl-cyclopropyl)-carbamoyl)-pyrrolidine-1-carbonyl)-benzoyl)pyrrolidine-3,4-dicarboxamide]
EC50 [1]: 200 nM
fold less active/potent than diprovocim-1 (3) (human THP-1 cells): 2000 fold

Structure (SMILES): O=C(NCCc1ccc(F)cc1)[C@H]1CN(C(=O)c2ccc(C(=O)N3C[C@H](C(=O)NCCc4ccc(F)cc4)[C@@H](C(=O)NCCc4ccc(F)cc4)C3)cc2)C[C@@H]1C(=O)NCCc1ccc(F)cc1 [Compound 98, (3R,3′R,4R,4′R)-1,1′-Terephthaloyl-bis(N^3,N^4-bis-(4-fluorophenethyl)pyrrolidine-3,4-dicarboxamide)]
EC50 (THP-1, running text b169, read-out: EC50, stimulated release of TNF-α from human THP-1 cells): > 5000 nM
fold less potent than the all S enantiomer 4 (human THP-1 cells): > 100 fold

Continued, values first:

EC50 [1]: 100 nM
Structure (SMILES): O=C(NCCc1ccc(F)cc1)[C@H]1CN(C(=O)c2ccc(C(=O)N3C[C@H](C(=O)NCCc4ccc(F)cc4)[C@@H](C(=O)NCCc4ccc(F)cc4)C3)cc2)C[C@@H]1C(=O)NCCc1ccc(F)cc1 (racemic) [Compound 69, 1,1′-Terephthaloylbis(N^3,N^4-bis(4-fluoro-phenethyl)-yrrolidine-trans-3,4-dicarboxamide)]

EC50 [1]: 80 nM
Structure (SMILES): O=C(NCCc1ccccc1)[C@@H]1CN(C(=O)c2ccc(C(=O)N3C[C@@H](C(=O)NCCc4ccccc4)[C@H](C(=O)N[C@H]4C[C@@H]4c4ccccc4)C3)cc2)C[C@H]1C(=O)N[C@H]1C[C@@H]1c1ccccc1 (stereo in doubt) [Compound 10, trans,trans-1, 1′-Terephthaloylbis(N^3-phenethyl-N^4-(trans-2-phenylcyclopropyl)pyrrolidine-3,4-dicarboxamide)]

EC50 [1]: 70 nM
Structure (SMILES): O=C(NCCc1ccc(F)cc1)[C@H]1CN(C(=O)c2ccc(C(=O)N3C[C@@H](C(=O)NCCc4ccc(F)cc4)[C@H](C(=O)NCCc4ccc(F)cc4)C3)cc2)C[C@@H]1C(=O)NCCc1ccc(F)cc1 [Compound 99, (3S,4S)-1-(4-((3R,4R)-3,4-Bis((4-fluorophen-ethyl)carbamoyl)pyrrolidine-1-carbonyl)benzoyl)—N^3,N^4-bis(4-fluorophenethyl)pyrrolidine-3,4-dicarboxamide]
